Measurements published in ChEMBL document CHEMBL5291721, “A preclinical secondary pharmacology resource illuminates target-adverse drug reaction associations of marketed drugs” (Nat Commun, 2023).

Key:
[1] = molecular target: T1, Muscarinic acetylcholine receptor M2 (Homo sapiens, UniProt P08172); assay type: functional, cell-based
T1 sequence (P08172 whole entry): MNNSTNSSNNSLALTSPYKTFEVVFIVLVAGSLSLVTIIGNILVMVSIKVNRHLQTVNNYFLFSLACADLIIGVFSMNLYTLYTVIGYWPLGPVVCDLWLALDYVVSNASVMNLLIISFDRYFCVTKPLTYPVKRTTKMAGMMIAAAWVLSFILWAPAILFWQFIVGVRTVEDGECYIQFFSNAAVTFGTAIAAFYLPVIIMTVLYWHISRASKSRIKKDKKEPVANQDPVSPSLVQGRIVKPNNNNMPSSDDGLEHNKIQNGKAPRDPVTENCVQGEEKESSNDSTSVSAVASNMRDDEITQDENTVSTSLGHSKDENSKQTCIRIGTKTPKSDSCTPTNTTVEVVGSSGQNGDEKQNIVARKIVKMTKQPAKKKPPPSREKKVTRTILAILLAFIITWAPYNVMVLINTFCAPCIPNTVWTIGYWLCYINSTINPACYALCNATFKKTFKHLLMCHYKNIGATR

[2] = molecular target: T2, Neuropeptide Y receptor type 1 (Homo sapiens, UniProt P25929); details: read-out: AC50
T2 sequence (P25929 whole entry): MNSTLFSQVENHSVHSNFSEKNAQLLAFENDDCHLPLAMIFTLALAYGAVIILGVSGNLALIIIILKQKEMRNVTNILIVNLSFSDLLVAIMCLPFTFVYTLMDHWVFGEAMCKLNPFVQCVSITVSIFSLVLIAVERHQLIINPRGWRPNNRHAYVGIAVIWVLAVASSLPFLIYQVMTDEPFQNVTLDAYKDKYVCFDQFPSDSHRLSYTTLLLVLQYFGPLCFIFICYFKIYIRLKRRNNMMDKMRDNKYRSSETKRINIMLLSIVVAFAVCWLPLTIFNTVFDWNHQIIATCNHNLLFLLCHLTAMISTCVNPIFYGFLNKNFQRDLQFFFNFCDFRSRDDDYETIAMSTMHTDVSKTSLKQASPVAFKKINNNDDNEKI

[3] = molecular target: T3, Alpha-2C adrenergic receptor (Homo sapiens, UniProt P18825); assay type: functional
T3 sequence (P18825 whole entry): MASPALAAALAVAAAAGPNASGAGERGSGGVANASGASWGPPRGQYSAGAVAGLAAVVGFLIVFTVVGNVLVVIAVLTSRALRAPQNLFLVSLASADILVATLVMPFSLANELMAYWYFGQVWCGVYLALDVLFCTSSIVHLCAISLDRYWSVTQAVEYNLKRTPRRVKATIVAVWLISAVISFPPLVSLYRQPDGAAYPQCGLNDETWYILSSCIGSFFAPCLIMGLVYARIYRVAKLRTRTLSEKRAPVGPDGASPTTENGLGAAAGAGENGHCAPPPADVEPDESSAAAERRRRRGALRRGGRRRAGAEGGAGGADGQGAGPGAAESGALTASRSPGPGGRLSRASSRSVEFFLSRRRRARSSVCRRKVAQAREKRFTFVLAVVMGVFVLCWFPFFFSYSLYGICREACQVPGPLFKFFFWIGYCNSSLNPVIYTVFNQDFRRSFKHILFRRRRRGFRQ

[4] = molecular target: T4, Alpha-2A adrenergic receptor (Homo sapiens, UniProt P08913); assay type: functional, cell-based
T4 sequence (P08913 whole entry): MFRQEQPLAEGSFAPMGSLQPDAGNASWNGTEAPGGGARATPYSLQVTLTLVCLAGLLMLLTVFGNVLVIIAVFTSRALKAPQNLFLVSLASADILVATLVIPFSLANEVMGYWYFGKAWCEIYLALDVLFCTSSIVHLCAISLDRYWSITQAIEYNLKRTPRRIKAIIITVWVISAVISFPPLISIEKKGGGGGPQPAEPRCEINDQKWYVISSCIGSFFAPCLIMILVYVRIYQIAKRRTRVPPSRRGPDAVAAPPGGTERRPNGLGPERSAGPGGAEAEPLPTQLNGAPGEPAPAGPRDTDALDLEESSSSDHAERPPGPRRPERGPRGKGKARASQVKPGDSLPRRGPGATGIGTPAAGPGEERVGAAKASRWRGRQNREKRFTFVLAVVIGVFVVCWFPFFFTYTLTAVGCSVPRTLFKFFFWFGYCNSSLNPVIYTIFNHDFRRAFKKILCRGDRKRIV

[5] = molecular target: T5, Amine oxidase [flavin-containing] A (Homo sapiens, UniProt P21397); assay type: functional
T5 sequence (P21397 whole entry): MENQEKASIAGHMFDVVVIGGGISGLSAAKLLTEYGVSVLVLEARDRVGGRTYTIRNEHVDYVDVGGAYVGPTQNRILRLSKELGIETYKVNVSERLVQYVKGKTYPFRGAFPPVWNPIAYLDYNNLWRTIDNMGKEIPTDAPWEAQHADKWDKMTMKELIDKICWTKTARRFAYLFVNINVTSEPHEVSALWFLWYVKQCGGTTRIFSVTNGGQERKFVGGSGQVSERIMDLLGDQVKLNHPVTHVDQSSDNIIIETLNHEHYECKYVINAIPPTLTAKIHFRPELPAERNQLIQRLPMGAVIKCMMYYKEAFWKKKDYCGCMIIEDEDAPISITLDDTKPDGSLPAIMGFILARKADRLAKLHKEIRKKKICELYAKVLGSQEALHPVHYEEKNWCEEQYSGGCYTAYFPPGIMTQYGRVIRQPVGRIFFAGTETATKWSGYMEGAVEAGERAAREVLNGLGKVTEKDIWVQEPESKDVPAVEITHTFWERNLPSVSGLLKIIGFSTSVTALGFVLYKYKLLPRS

Thromboxane A2 receptor = molecular target: T6, Thromboxane A2 receptor (Homo sapiens, UniProt P21731)
T6 sequence (P21731 whole entry): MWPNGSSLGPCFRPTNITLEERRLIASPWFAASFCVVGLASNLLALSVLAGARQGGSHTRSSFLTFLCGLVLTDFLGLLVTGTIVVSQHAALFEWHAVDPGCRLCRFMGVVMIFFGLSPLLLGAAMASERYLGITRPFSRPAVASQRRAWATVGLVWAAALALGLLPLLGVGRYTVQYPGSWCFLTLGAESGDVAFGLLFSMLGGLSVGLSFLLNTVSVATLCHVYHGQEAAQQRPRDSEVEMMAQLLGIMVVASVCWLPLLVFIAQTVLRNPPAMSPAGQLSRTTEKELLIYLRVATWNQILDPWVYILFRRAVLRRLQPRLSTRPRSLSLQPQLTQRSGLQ
Note: assay procedure not described here.

Row | Structure (SMILES) | AC50 [1] | AC50 [2] | AC50 [3] | AC50 [4] | AC50 [5] | AC50 (Thromboxane A2 receptor)
1 | Nc1cc(-c2ccncc2)c[nH]c1=O [INAMRINONE] | > 10 µM | > 30 µM | > 10 µM | > 10 µM | > 10 µM | > 30 µM
2 | CCOC(=O)O[C@]1(C(=O)OCCl)CC[C@H]2[C@@H]3CCC4=CC(=O)C=C[C@]4(C)[C@H]3[C@@H](O)C[C@@]21C [LOTEPREDNOL ETABONATE] | > 30 µM | > 30 µM | > 30 µM | > 30 µM | > 30 µM | > 30 µM
3 | COc1cc2c(cc1OC)C(CCc1ccc(Cl)cc1)N(C)CC2 (stereo unspecified) [METHOPHOLINE] | > 10 µM | > 30 µM | > 10 µM | > 10 µM | 11 µM | > 30 µM
4 | Cc1ncc2n1-c1ccc(Cl)cc1C(c1ccccc1F)=NC2 [MIDAZOLAM] | > 10 µM | > 30 µM | > 10 µM | > 10 µM | > 10 µM | > 30 µM
5 | C/C(=C\C(=O)OCCCCCCCCC(=O)O)C[C@@H]1OC[C@H](C[C@@H]2O[C@H]2[C@@H](C)[C@H](C)O)[C@@H](O)[C@H]1O [MUPIROCIN] | > 10 µM | > 10 µM | > 10 µM | > 10 µM | > 10 µM | > 10 µM
6 | O=C1CN=C(c2ccccc2)c2cc([N+](=O)[O-])ccc2N1 [NITRAZEPAM] | > 10 µM | > 10 µM | > 10 µM | > 10 µM | > 10 µM | > 10 µM
7 | C#CCOc1ccc(N)cc1C(=O)NCCCC [PARSALMIDE] | > 30 µM | > 30 µM | > 30 µM | > 30 µM | > 30 µM | > 30 µM
8 | COc1ccc2nc3cc(Cl)ccc3c(Nc3cc(CN4CCCC4)c(O)c(CN4CCCC4)c3)c2n1 [PYRONARIDINE] | > 30 µM | > 30 µM | 21 µM | > 30 µM | > 30 µM | > 30 µM
9 | CCN(CC)CCNC(=O)c1cc(S(C)(=O)=O)ccc1OC [TIAPRIDE] | > 30 µM | > 30 µM | > 30 µM | > 30 µM | > 30 µM | > 30 µM
10 | NC1CCN(c2nc3c(cc2F)c(=O)c(C(=O)O)cn3-c2ccc(F)cc2F)C1 (stereo unspecified) [TOSUFLOXACIN] | > 30 µM | > 30 µM | > 30 µM | > 30 µM | > 30 µM | > 30 µM
11 | CCC(COC(=O)c1cc(OC)c(OC)c(OC)c1)(c1ccccc1)N(C)C (stereo unspecified) [TRIMEBUTINE] | > 30 µM | > 30 µM | > 30 µM | > 30 µM | > 30 µM | > 30 µM
